In the NIST ThermoML archive (doi:10.1021/je1003065):

Test: mn = molality of the nth substance listed, in mol/kg
Conditions: Liquid, Vibrating tube method

[Br-].[Li+] [lithium bromide] + CCO
Conditions | mass density [kg/m3]
293.15 K, 1024 kPa, m1 = 2.833 | 956.08
293.15 K, 1034 kPa, m1 = 0.9499 | 850.27
293.15 K, 5015 kPa, m1 = 3.368 | 986.33
293.15 K, 5029 kPa, m1 = 0.9499 | 853.2
293.15 K, 5201 kPa, m1 = 2.833 | 959.11
293.15 K, 10003 kPa, m1 = 0.2335 | 812.89
293.15 K, 10032 kPa, m1 = 2.833 | 962.5
293.15 K, 10041 kPa, m1 = 0.9499 | 856.81
293.15 K, 10061 kPa, m1 = 0.5972 | 835.46
293.15 K, 19924 kPa, m1 = 0.9499 | 863.69
293.15 K, 20003 kPa, m1 = 0.2335 | 820.16
293.15 K, 20038 kPa, m1 = 3.368 | 996.51
293.15 K, 29895 kPa, m1 = 0.9499 | 870.31
293.15 K, 29978 kPa, m1 = 3.368 | 1002.69
293.15 K, 29993 kPa, m1 = 0.5972 | 849.31
293.15 K, 39912 kPa, m1 = 0.5972 | 855.69
293.15 K, 39956 kPa, m1 = 0.2335 | 833.59
293.15 K, 39985 kPa, m1 = 2.833 | 981.35
293.15 K, 40003 kPa, m1 = 0.9499 | 876.7
293.15 K, 49936 kPa, m1 = 3.368 | 1014.01
293.15 K, 49993 kPa, m1 = 0.5972 | 861.83
293.15 K, 50002 kPa, m1 = 0.9499 | 882.7
293.15 K, 59924 kPa, m1 = 0.2335 | 845.57
293.15 K, 60001 kPa, m1 = 2.833 | 992.24
293.15 K, 60032 kPa, m1 = 0.9499 | 888.39
293.15 K, 70032 kPa, m1 = 2.833 | 997.31
293.15 K, 70102 kPa, m1 = 0.9499 | 893.78
293.15 K, 79914 kPa, m1 = 1.462 | 928.13
293.15 K, 79926 kPa, m1 = 0.2335 | 856.13
293.15 K, 79956 kPa, m1 = 0.9499 | 898.74
293.15 K, 79956 kPa, m1 = 2.833 | 1002.13
293.15 K, 80104 kPa, m1 = 3.368 | 1029.17
293.15 K, 89245 kPa, m1 = 0.9499 | 903.13
293.15 K, 89926 kPa, m1 = 0.5972 | 882.72
293.15 K, 89954 kPa, m1 = 0.2335 | 860.88
293.15 K, 89958 kPa, m1 = 2.833 | 1006.83
293.15 K, 89963 kPa, m1 = 1.462 | 932.84
293.15 K, 89989 kPa, m1 = 3.368 | 1033.84
293.15 K, 99824 kPa, m1 = 1.462 | 937.16
293.15 K, 99895 kPa, m1 = 3.368 | 1038.46
293.15 K, 99965 kPa, m1 = 0.9499 | 907.85
293.15 K, 99965 kPa, m1 = 2.833 | 1011.42
293.15 K, 99986 kPa, m1 = 0.2335 | 865.27
293.16 K, 1250 kPa, m1 = 3.368 | 983.6
293.16 K, 19905 kPa, m1 = 0.5972 | 842.47
293.16 K, 29938 kPa, m1 = 2.833 | 975.41
293.16 K, 39654 kPa, m1 = 3.368 | 1008.34
293.16 K, 69784 kPa, m1 = 0.2335 | 850.96
293.16 K, 99971 kPa, m1 = 0.5972 | 887.12
293.17 K, 1430 kPa, m1 = 2.272 | 926.33
293.17 K, 1504 kPa, m1 = 0.5972 | 829.09
293.17 K, 4902 kPa, m1 = 2.272 | 928.89
293.17 K, 4938 kPa, m1 = 0.5972 | 831.68
293.17 K, 10030 kPa, m1 = 2.272 | 932.58
293.17 K, 19789 kPa, m1 = 2.272 | 939.24
293.17 K, 29946 kPa, m1 = 2.272 | 945.75
293.17 K, 40161 kPa, m1 = 2.272 | 951.9
293.17 K, 49963 kPa, m1 = 2.272 | 957.45
293.17 K, 89964 kPa, m1 = 2.272 | 977.54
293.17 K, 99958 kPa, m1 = 2.272 | 982.14
293.18 K, 60025 kPa, m1 = 2.272 | 962.8
293.18 K, 69979 kPa, m1 = 2.272 | 967.88
293.19 K, 79838 kPa, m1 = 2.272 | 972.67
298.09 K, 1141 kPa, m1 = 0.5972 | 824.73
298.1 K, 99589 kPa, m1 = 2.272 | 978.52
298.11 K, 60144 kPa, m1 = 1.462 | 914.77
298.12 K, 39801 kPa, m1 = 1.462 | 902.81
298.12 K, 39933 kPa, m1 = 2.272 | 947.93
298.12 K, 49922 kPa, m1 = 1.462 | 908.93
298.12 K, 49993 kPa, m1 = 2.272 | 953.69
298.12 K, 60039 kPa, m1 = 2.272 | 959.15
298.12 K, 99737 kPa, m1 = 3.368 | 1034.98
298.13 K, 5308 kPa, m1 = 1.462 | 879.29
298.13 K, 59998 kPa, m1 = 0.5972 | 864.41
298.13 K, 69983 kPa, m1 = 2.272 | 964.25
298.13 K, 80661 kPa, m1 = 3.368 | 1025.85
298.13 K, 89925 kPa, m1 = 2.272 | 973.93
298.13 K, 89985 kPa, m1 = 3.368 | 1030.35
298.14 K, 5004 kPa, m1 = 2.833 | 954.84
298.14 K, 20004 kPa, m1 = 0.2335 | 816.39
298.14 K, 30021 kPa, m1 = 2.833 | 971.59
298.14 K, 70023 kPa, m1 = 2.833 | 993.85
298.14 K, 79924 kPa, m1 = 0.2335 | 853.09
298.15 K, 1023 kPa, m1 = 2.833 | 951.93
298.15 K, 1045 kPa, m1 = 0.9499 | 845.75
298.15 K, 1204 kPa, m1 = 0.2335 | 801.78
298.15 K, 5002 kPa, m1 = 0.2335 | 805.08
298.15 K, 5004 kPa, m1 = 0.9499 | 848.93
298.15 K, 5221 kPa, m1 = 0.5972 | 827.89
298.15 K, 10024 kPa, m1 = 0.9499 | 852.82
298.15 K, 10064 kPa, m1 = 0.2335 | 808.99
298.15 K, 19935 kPa, m1 = 2.833 | 965.15
298.15 K, 19956 kPa, m1 = 0.9499 | 860.13
298.15 K, 29124 kPa, m1 = 0.2335 | 822.86
298.15 K, 29945 kPa, m1 = 0.9499 | 866.97
298.15 K, 29950 kPa, m1 = 2.272 | 941.76
298.15 K, 29993 kPa, m1 = 0.5972 | 845.75
298.15 K, 29993 kPa, m1 = 1.462 | 896.53
298.15 K, 39784 kPa, m1 = 0.9499 | 873.28
298.15 K, 39830 kPa, m1 = 0.5972 | 852.23
298.15 K, 39845 kPa, m1 = 2.833 | 977.51
298.15 K, 49956 kPa, m1 = 0.2335 | 836.44
298.15 K, 49963 kPa, m1 = 0.5972 | 858.53
298.15 K, 50012 kPa, m1 = 0.9499 | 879.42
298.15 K, 59968 kPa, m1 = 2.833 | 988.68
